Our source for the MIC values is ChEMBL document CHEMBL4052714, “Synthesis and antibacterial activity of novel 4″-O-(1-aralkyl-1,2,3-triazol-4-methyl-carbamoyl) azithromycin analogs” (2017).

Structures are written as SMILES. ≈ marks a conversion by molar mass, not a printed value.

Type in all cases: functional
In assay [1] the test system is Staphylococcus aureus. The assay is described as follows: Antibacterial activity against erythromycin-susceptible Staphylococcus aureus ATCC 25923.
In assay [2] the test system is Streptococcus pneumoniae. The assay is described as follows: Antibacterial activity against erythromycin-susceptible Streptococcus pneumoniae ATCC 49619.
Assay [3] deals with Staphylococcus aureus. The assay can be described thus: Antibacterial activity against methicillin-susceptible Staphylococcus aureus ATCC 29213.
Assay [4] has as its system Streptococcus pyogenes. The assay is described as follows: Antibacterial activity against erythromycin-susceptible Streptococcus pyogenes isolate S2.
Assay [5] concerns Streptococcus pyogenes. The assay can be described thus: Antibacterial activity against erythromycin-resistant Streptococcus pyogenes isolate R2.
The subject of assay [6] is Streptococcus pneumoniae. The assay can be described thus: Antibacterial activity against erythromycin-resistant Streptococcus pneumoniae B1 expressing ermB gene.
For assay [7], the system named is Streptococcus pneumoniae. The assay is described as follows: Antibacterial activity against erythromycin-resistant Streptococcus pneumoniae A22072 expressing mefA gene.
The subject of assay [8] is Streptococcus pneumoniae. The assay can be described thus: Antibacterial activity against erythromycin-resistant Streptococcus pneumoniae AB11 expressing ermB/mefA gene.
In another assay the test system is Escherichia coli. The assay is described as follows: Antibacterial activity against Escherichia coli ATCC 25922.
Another assay deals with Pseudomonas aeruginosa. The assay is described as follows: Antibacterial activity against Pseudomonas aeruginosa ATCC 27853.

In the case of `CC[C@H]1OC(=O)[C@H](C)[C@@H](O[C@H]2C[C@@](C)(OC)[C@@H](OC(=O)NCc3cn(Cc4ccccc4C)nn3)[C@H](C)O2)[C@H](C)[C@@H](O[C@@H]2O[C@H](C)C[C@H](N(C)C)[C@H]2O)[C@](C)(O)C[C@@H](C)CN(C)[C@H](C)[C@H]2OC(=O)O[C@@]21C`, the MIC (as a rule, the lowest concentration that inhibits growth of the organism) against Staphylococcus aureus [1] was found to be 4 µg/mL (≈ 3.99 µM); in the assay with Streptococcus pneumoniae [2], 0.5 µg/mL (≈ 0.498 µM); with Staphylococcus aureus [3], 32 µg/mL (≈ 31.9 µM); in the assay on Streptococcus pyogenes [4], 0.06 µg/mL (≈ 0.0598 µM); against Streptococcus pyogenes [5] it was 64 µg/mL (≈ 63.8 µM); in the assay on Streptococcus pneumoniae [6], 4 µg/mL (≈ 3.99 µM). Moreover, the MIC in the assay with Streptococcus pneumoniae [7] amounted to 2 µg/mL (≈ 1.99 µM); with Streptococcus pneumoniae [8] it was 2 µg/mL (≈ 1.99 µM); against Escherichia coli, 128 µg/mL (≈ 128 µM); against Pseudomonas aeruginosa, 64 µg/mL (≈ 63.8 µM).
In the case of `CC[C@H]1OC(=O)[C@H](C)[C@@H](O[C@H]2C[C@@](C)(OC)[C@@H](OC(=O)NCc3cn(Cc4ccccc4)nn3)[C@H](C)O2)[C@H](C)[C@@H](O[C@@H]2O[C@H](C)C[C@H](N(C)C)[C@H]2O)[C@](C)(O)C[C@@H](C)CN(C)[C@H](C)[C@@H](O)[C@]1(C)O`, the MIC in the assay on Staphylococcus aureus [1] was determined as 1 µg/mL (≈ 1.04 µM); against Streptococcus pneumoniae [2] it was 0.5 µg/mL (≈ 0.519 µM); against Staphylococcus aureus [3], 8 µg/mL (≈ 8.31 µM); against Streptococcus pyogenes [4], 0.06 µg/mL (≈ 0.0623 µM); against Streptococcus pyogenes [5] it was 32 µg/mL (≈ 33.2 µM); with Streptococcus pneumoniae [6], 2 µg/mL (≈ 2.08 µM). For the same molecule, the minimum inhibitory concentration (MIC) with Streptococcus pneumoniae [7] turned out to be 1 µg/mL (≈ 1.04 µM); in the assay with Streptococcus pneumoniae [8], 4 µg/mL (≈ 4.15 µM); with Escherichia coli, 32 µg/mL (≈ 33.2 µM); against Pseudomonas aeruginosa, 32 µg/mL (≈ 33.2 µM).
As for `CC[C@H]1OC(=O)[C@H](C)[C@@H](O[C@H]2C[C@@](C)(OC)[C@@H](OC(=O)NCc3cn(Cc4ccc([N+](=O)[O-])cc4)nn3)[C@H](C)O2)[C@H](C)[C@@H](O[C@@H]2O[C@H](C)C[C@H](N(C)C)[C@H]2O)[C@](C)(O)C[C@@H](C)CN(C)[C@H](C)[C@H]2OC(=O)O[C@@]21C`, the MIC against Staphylococcus aureus [1] is 4 µg/mL (≈ 3.87 µM); with Streptococcus pneumoniae [2], 1 µg/mL (≈ 0.967 µM); against Staphylococcus aureus [3], 32 µg/mL (≈ 30.9 µM); against Streptococcus pyogenes [4], 0.008 µg/mL (≈ 0.00774 µM); with Streptococcus pyogenes [5], 128 µg/mL (≈ 124 µM); against Streptococcus pneumoniae [6] it was 4 µg/mL (≈ 3.87 µM). The MIC against Streptococcus pneumoniae [7] was determined as 4 µg/mL (≈ 3.87 µM); against Streptococcus pneumoniae [8] it was 0.5 µg/mL (≈ 0.483 µM); against Escherichia coli it was 64 µg/mL (≈ 61.9 µM); against Pseudomonas aeruginosa, 64 µg/mL (≈ 61.9 µM).
In the case of `CC[C@H]1OC(=O)[C@H](C)[C@@H](O[C@H]2C[C@@](C)(OC)[C@@H](OC(=O)NCc3cn(Cc4ccc(Cl)cc4)nn3)[C@H](C)O2)[C@H](C)[C@@H](O[C@@H]2O[C@H](C)C[C@H](N(C)C)[C@H]2O)[C@](C)(O)C[C@@H](C)CN(C)[C@H](C)[C@@H](O)[C@]1(C)O`, the MIC amounted to 1 µg/mL (≈ 1 µM) in the assay on Staphylococcus aureus [1]; 0.5 µg/mL (≈ 0.501 µM) in the assay with Streptococcus pneumoniae [2]; 16 µg/mL (≈ 16 µM) against Staphylococcus aureus [3]; 0.03 µg/mL (≈ 0.0301 µM) with Streptococcus pyogenes [4]; 64 µg/mL (≈ 64.1 µM) against Streptococcus pyogenes [5]; 2 µg/mL (≈ 2 µM) against Streptococcus pneumoniae [6]. The MIC against Streptococcus pneumoniae [7] came to 1 µg/mL (≈ 1 µM); in the assay on Streptococcus pneumoniae [8], 0.5 µg/mL (≈ 0.501 µM); with Escherichia coli, 64 µg/mL (≈ 64.1 µM); in the assay on Pseudomonas aeruginosa it was 32 µg/mL (≈ 32.1 µM).
As to `CC[C@H]1OC(=O)[C@H](C)[C@@H](O[C@H]2C[C@@](C)(OC)[C@@H](OC(=O)NCc3cn(Cc4ccc(Br)cc4)nn3)[C@H](C)O2)[C@H](C)[C@@H](O[C@@H]2O[C@H](C)C[C@H](N(C)C)[C@H]2O)[C@](C)(O)C[C@@H](C)CN(C)[C@H](C)[C@H]2OC(=O)O[C@@]21C`, the MIC is 2 µg/mL (≈ 1.87 µM) with Staphylococcus aureus [1]; 1 µg/mL (≈ 0.936 µM) in the assay on Streptococcus pneumoniae [2]; 32 µg/mL (≈ 30 µM) in the assay with Staphylococcus aureus [3]; 0.06 µg/mL (≈ 0.0562 µM) against Streptococcus pyogenes [4]; 32 µg/mL (≈ 30 µM) with Streptococcus pyogenes [5]; 4 µg/mL (≈ 3.74 µM) in the assay with Streptococcus pneumoniae [6]. Further, the MIC turned out to be 1 µg/mL (≈ 0.936 µM) with Streptococcus pneumoniae [7], 1 µg/mL (≈ 0.936 µM) against Streptococcus pneumoniae [8], 128 µg/mL (≈ 120 µM) with Escherichia coli and 64 µg/mL (≈ 59.9 µM) in the assay with Pseudomonas aeruginosa.
As for `CC[C@H]1OC(=O)[C@H](C)[C@@H](O[C@H]2C[C@@](C)(OC)[C@@H](OC(=O)NCc3cn(Cc4ccc(C)cc4)nn3)[C@H](C)O2)[C@H](C)[C@@H](O[C@@H]2O[C@H](C)C[C@H](N(C)C)[C@H]2O)[C@](C)(O)C[C@@H](C)CN(C)[C@H](C)[C@@H](O)[C@]1(C)O`, the MIC is 1 µg/mL (≈ 1.02 µM) in the assay with Staphylococcus aureus [1]; 0.5 µg/mL (≈ 0.512 µM) against Streptococcus pneumoniae [2]; 16 µg/mL (≈ 16.4 µM) against Staphylococcus aureus [3]; 0.03 µg/mL (≈ 0.0307 µM) in the assay on Streptococcus pyogenes [4]; 64 µg/mL (≈ 65.5 µM) in the assay with Streptococcus pyogenes [5]; 0.5 µg/mL (≈ 0.512 µM) in the assay on Streptococcus pneumoniae [6]. The minimal inhibitory concentration (MIC) against Streptococcus pneumoniae [7] amounted to 0.5 µg/mL (≈ 0.512 µM); against Streptococcus pneumoniae [8], 1 µg/mL (≈ 1.02 µM); against Escherichia coli it was 32 µg/mL (≈ 32.7 µM); in the assay on Pseudomonas aeruginosa, 64 µg/mL (≈ 65.5 µM).
For the molecule `CC[C@H]1OC(=O)[C@H](C)[C@@H](O[C@H]2C[C@@](C)(OC)[C@@H](OC(=O)NCc3cn(Cc4cccc(Cl)c4)nn3)[C@H](C)O2)[C@H](C)[C@@H](O[C@@H]2O[C@H](C)C[C@H](N(C)C)[C@H]2O)[C@](C)(O)C[C@@H](C)CN(C)[C@H](C)[C@@H](O)[C@]1(C)O`, the MIC with Staphylococcus aureus [1] was found to be 1 µg/mL (≈ 1 µM); in the assay on Streptococcus pneumoniae [2], 0.25 µg/mL (≈ 0.251 µM); in the assay with Staphylococcus aureus [3], 8 µg/mL (≈ 8.02 µM); with Streptococcus pyogenes [4], 0.06 µg/mL (≈ 0.0601 µM); in the assay with Streptococcus pyogenes [5] it was 64 µg/mL (≈ 64.1 µM); in the assay on Streptococcus pneumoniae [6], 0.5 µg/mL (≈ 0.501 µM). The MIC amounted to 0.25 µg/mL (≈ 0.251 µM) against Streptococcus pneumoniae [7], 1 µg/mL (≈ 1 µM) against Streptococcus pneumoniae [8], 16 µg/mL (≈ 16 µM) with Escherichia coli and 32 µg/mL (≈ 32.1 µM) against Pseudomonas aeruginosa.
